Square brackets hold non-standard residues; d marks the D form. Peptide text beside a SMILES is read from it. Phe(3-Cl) = N[C@@H](Cc1cccc(Cl)c1)C(=O)O; Phe(4-Cl) = N[C@@H](Cc1ccc(Cl)cc1)C(=O)O; Phe(4-NH2) = Nc1ccc(C[C@H](N)C(=O)O)cc1; Phe(2-Cl) = N[C@@H](Cc1ccccc1Cl)C(=O)O; 2Nal = N[C@@H](Cc1ccc2ccccc2c1)C(=O)O; Arg(Me) = CNC(=N)NCCC[C@H](N)C(=O)O; azaGly = NNC(=O)O
The molecules below were run against hOT7T175 (Homo sapiens, UniProt Q969F8, L364H) (assay: Intracellular Ca ion level-increasing activity using FLIPR in hOT7T175/CHO). Conditions: relative, Metastin (1-54) = 1.
hOT7T175, sequence (Q969F8 whole entry L364H): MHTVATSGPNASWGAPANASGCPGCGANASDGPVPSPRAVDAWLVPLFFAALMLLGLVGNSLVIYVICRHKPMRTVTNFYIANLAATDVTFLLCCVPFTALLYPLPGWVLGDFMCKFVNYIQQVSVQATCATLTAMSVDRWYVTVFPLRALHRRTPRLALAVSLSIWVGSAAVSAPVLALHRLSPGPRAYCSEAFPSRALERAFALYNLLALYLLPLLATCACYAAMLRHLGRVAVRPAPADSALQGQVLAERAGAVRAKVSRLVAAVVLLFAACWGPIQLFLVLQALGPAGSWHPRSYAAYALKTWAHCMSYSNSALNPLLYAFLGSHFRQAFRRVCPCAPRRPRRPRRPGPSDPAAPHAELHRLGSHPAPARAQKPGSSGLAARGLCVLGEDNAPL
Assay type: cell-based
Set-up: expressed in transfected cells; host or cells: CHO/dhfr- cells, obtained from ATCC

Compound | Specific Activity (intracellular Ca ion level-increasing activity)
CNC(=N)NCCC[C@H](NC(=O)[C@H](CC(C)C)NC(=O)NNC(=O)[C@H](Cc1ccccc1)NC(=O)[C@H](CO)NC(=O)[C@H](CC(N)=O)NC(=O)[C@H](Cc1ccccc1Cl)NC(=O)[C@H](CC(N)=O)NC(=O)[C@H](N)Cc1ccc(O)cc1)C(=O)N[C@@H](Cc1ccccc1)C(N)=O [Compound No. 247, D-Tyr-Asn-Phe(2Cl)-Asn-Ser-Phe-AzaGly-Leu-Arg(Me)-Phe-NH2] (H-[dY]N[Phe(2-Cl)]NSF[azaGly]L[Arg(Me)]F-NH2) | 1
CNC(=N)NCCC[C@H](NC(=O)[C@H](CC(C)C)NC(=O)NNC(=O)[C@H](Cc1ccccc1)NC(=O)[C@H](CO)NC(=O)[C@H](CC(N)=O)NC(=O)[C@H](Cc1cccc(Cl)c1)NC(=O)[C@H](CC(N)=O)NC(=O)[C@H](N)Cc1ccc(O)cc1)C(=O)N[C@@H](Cc1ccccc1)C(N)=O [Compound No. 248, D-Tyr-Asn-Phe(3Cl)-Asn-Ser-Phe-AzaGly-Leu-Arg(Me)-Phe-NH2] (H-[dY]N[Phe(3-Cl)]NSF[azaGly]L[Arg(Me)]F-NH2) | 2
CNC(=N)NCCC[C@H](NC(=O)[C@H](CC(C)C)NC(=O)NNC(=O)[C@H](Cc1ccccc1)NC(=O)[C@H](CO)NC(=O)[C@H](CC(N)=O)NC(=O)[C@H](Cc1ccccc1)NC(=O)[C@H](N)Cc1ccc(O)cc1)C(=O)N[C@@H](Cc1ccccc1)C(N)=O [Compound No. 254, D-Tyr-Phe-Asn-Ser-Phe-AzaGly-Leu-Arg(Me)-Phe-NH2] (H-[dY]FNSF[azaGly]L[Arg(Me)]F-NH2) | 1
CNC(=N)NCCC[C@H](NC(=O)[C@H](CC(C)C)NC(=O)NNC(=O)[C@H](Cc1ccccc1)NC(=O)[C@H](CO)NC(=O)[C@H](CC(N)=O)NC(=O)[C@H](Cc1ccc2ccccc2c1)NC(=O)[C@H](N)Cc1ccc(O)cc1)C(=O)N[C@@H](Cc1ccccc1)C(N)=O [Compound No. 255, D-Tyr-Nal(2)-Asn-Ser-Phe-AzaGly-Leu-Arg(Me)-Phe-NH2] (H-[dY][2Nal]NSF[azaGly]L[Arg(Me)]F-NH2) | 1

Continued, values first:

Specific Activity (intracellular Ca ion level-increasing activity) | Compound
2 | CNC(=N)NCCC[C@H](NC(=O)[C@H](CC(C)C)NC(=O)NNC(=O)[C@H](Cc1ccccc1)NC(=O)[C@H](CO)NC(=O)[C@H](CC(N)=O)NC(=O)[C@H](Cc1ccc2ccccc2c1)NC(=O)[C@H](CC(N)=O)NC(=O)[C@H](N)Cc1ccc(O)cc1)C(=O)N[C@@H](Cc1ccccc1)C(N)=O [Compound No. 246, D-Tyr-Asn-Nal(2)-Asn-Ser-Phe-AzaGly-Leu-Arg(Me)-Phe-NH2] (H-[dY]N[2Nal]NSF[azaGly]L[Arg(Me)]F-NH2)
1 | CNC(=N)NCCC[C@H](NC(=O)[C@H](CC(C)C)NC(=O)NNC(=O)[C@H](Cc1ccccc1)NC(=O)[C@H](CO)NC(=O)[C@H](CC(N)=O)NC(=O)[C@H](Cc1ccc(Cl)cc1)NC(=O)[C@H](CC(N)=O)NC(=O)[C@H](N)Cc1ccc(O)cc1)C(=O)N[C@@H](Cc1ccccc1)C(N)=O [Compound No. 249, D-Tyr-Asn-Phe(4Cl)-Asn-Ser-Phe-AzaGly-Leu-Arg(Me)-Phe-NH2] (H-[dY]N[Phe(4-Cl)]NSF[azaGly]L[Arg(Me)]F-NH2)
1 | CNC(=N)NCCC[C@H](NC(=O)[C@H](CC(C)C)NC(=O)NNC(=O)[C@H](Cc1ccccc1)NC(=O)[C@H](CO)NC(=O)[C@H](CC(N)=O)NC(=O)[C@H](Cc1ccc(N)cc1)NC(=O)[C@H](CC(N)=O)NC(=O)[C@H](N)Cc1ccc(O)cc1)C(=O)N[C@@H](Cc1ccccc1)C(N)=O [Compound No. 250, D-Tyr-Asn-Phe(4NH2)-Asn-Ser-Phe-AzaGly-Leu-Arg(Me)-Phe-NH2] (H-[dY]N[Phe(4-NH2)]NSF[azaGly]L[Arg(Me)]F-NH2)

— patent publication US8361968B2 (Takeda Pharmaceutical Company Limited, priority 2002, dated 2013)
